# Test results from ChEMBL document CHEMBL1201862, “PubChem BioAssay data set” (2004).
#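 Values below derive from 48-hour exposures of cells grown in 96-well plates, with endpoints linearly interpolated between the two concentrations bracketing the appropriate inhibition level. At the GI50, growth is halved.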 Activity calls are given as the source filed them. No stated cut-off is given here; in the data, active = GI50 up to about 1.1 µM and inactive = higher.
# Tests used:
# Assay in all cases: DTP human tumour cell line panel, 48 h
# [1] = system: SN12C
# [2] = system: ACHN
# [3] = system: OVCAR-5
# [4] = system: K562
# [5] = system: HOP-62
# [6] = system: HOP-92
# [7] = system: LXFL 529
# [8] = system: IGROV-1
# [9] = system: NCI-H23
# [10] = system: UACC-62
# [11] = system: NCI-H522
# [12] = system: RXF 393
# [13] = system: U-251
# [14] = system: SF-268
# [15] = system: OVCAR-3
# [16] = system: EKVX
# [17] = system: MDA-N
# [18] = system: DU-145
# [19] = system: MDA-MB-231
# [20] = system: T47D
SMILES,GI50 [1],GI50 [2],GI50 [3],GI50 [4],GI50 [5],GI50 [6],GI50 [7],GI50 [8],GI50 [9],GI50 [10],GI50 [11],GI50 [12],GI50 [13],GI50 [14],GI50 [15],GI50 [16],GI50 [17],GI50 [18],GI50 [19],GI50 [20]
CCc1cccc(C(C)CC)c1NC(=O)C(=O)Cc1nc2ccccc2o1 (stereo unspecified),> 50 µM (inactive),> 50 µM (inactive),> 43.8 µM (inactive),> 50 µM (inactive),> 50 µM (inactive),> 50 µM (inactive),> 50 µM (inactive),> 50 µM (inactive),> 50 µM (inactive),> 50 µM (inactive),> 50 µM (inactive),> 50 µM (inactive),> 50 µM (inactive),> 50 µM (inactive),> 50 µM (inactive),> 50 µM (inactive),–,–,–,–
C#CCN(N=O)C(=O)NC(CCCCNC(=O)OCc1ccccc1)C(=O)OCc1ccccc1 (stereo unspecified),28.4 µM (inactive),55.5 µM (inactive),24.5 µM (inactive),20.5 µM (inactive),> 100 µM (inactive),15.7 µM (inactive),17 µM (inactive),> 100 µM (inactive),67.6 µM (inactive),32.7 µM (inactive),13.9 µM (inactive),46.7 µM (inactive),27.9 µM (inactive),47 µM (inactive),36.1 µM (inactive),22.7 µM (inactive),–,–,–,–
CC1=NN(c2ccccc2)C(=O)C1=C1SCCS1,> 83 µM (inactive),97.1 µM (inactive),> 100 µM (inactive),43.6 µM (inactive),> 100 µM (inactive),37 µM (inactive),> 67.9 µM (inactive),82.4 µM (inactive),> 100 µM (inactive),> 62.2 µM (inactive),43 µM (inactive),37 µM (inactive),> 53.2 µM (inactive),> 94.6 µM (inactive),34.9 µM (inactive),47.5 µM (inactive),–,–,–,–
N#CC1(C#N)C(C#N)(C#N)C12CCCCCC2,18.1 µM (inactive),11.1 µM (inactive),16.4 µM (inactive),3.1 µM (inactive),> 52.8 µM (inactive),15.4 µM (inactive),15.2 µM (inactive),40.2 µM (inactive),16 µM (inactive),12.9 µM (inactive),2.77 µM (inactive),10.4 µM (inactive),14.1 µM (inactive),22.5 µM (inactive),16.1 µM (inactive),17.3 µM (inactive),–,–,–,–
O=C1C(Cl)=C(N2CCN(C3=C(Cl)C(=O)c4ccccc4C3=O)CC2)C(=O)c2ccccc21,1.69 µM (inactive),1.64 µM (inactive),6.64 µM (inactive),0.121 µM (active),12.4 µM (inactive),1.04 µM (active),0.297 µM (active),1.91 µM (inactive),1.58 µM (inactive),1.79 µM (inactive),0.652 µM (active),1.63 µM (inactive),3.13 µM (inactive),2.62 µM (inactive),1.6 µM (inactive),1.79 µM (inactive),1.86 µM (inactive),4.91 µM (inactive),1.64 µM (inactive),0.729 µM (active)
CCOP(=O)(OCC)C(C(=O)OC)C(=O)C(=O)Nc1c(C)cc(Br)cc1C (stereo unspecified),> 100 µM (inactive),> 100 µM (inactive),> 100 µM (inactive),> 100 µM (inactive),> 100 µM (inactive),> 100 µM (inactive),> 100 µM (inactive),> 100 µM (inactive),> 100 µM (inactive),> 100 µM (inactive),> 100 µM (inactive),> 100 µM (inactive),> 100 µM (inactive),> 100 µM (inactive),> 100 µM (inactive),> 100 µM (inactive),–,–,–,–
COc1ccc2oc3c4c2c1CCC4CCC3=O (stereo unspecified),> 100 µM (inactive),> 100 µM (inactive),> 100 µM (inactive),> 100 µM (inactive),> 100 µM (inactive),55.7 µM (inactive),> 100 µM (inactive),> 100 µM (inactive),> 100 µM (inactive),> 100 µM (inactive),58.2 µM (inactive),36.1 µM (inactive),> 100 µM (inactive),85.9 µM (inactive),> 100 µM (inactive),> 100 µM (inactive),–,–,–,–
O=C(Cc1ccccc1)N/N=C(\C1=Nc2ccc([N+](=O)[O-])cc2NC1O)C(O)c1ccc([N+](=O)[O-])cc1 (stereo unspecified),> 100 µM (inactive),78 µM (inactive),> 100 µM (inactive),28.2 µM (inactive),> 100 µM (inactive),> 100 µM (inactive),42.6 µM (inactive),> 100 µM (inactive),> 100 µM (inactive),54 µM (inactive),7.89 µM (inactive),> 100 µM (inactive),> 100 µM (inactive),> 100 µM (inactive),> 100 µM (inactive),> 100 µM (inactive),–,–,–,–
COc1ccc2nc(-c3ccc(OCc4ccccc4)cc3)ccc2c1,> 100 µM (inactive),> 100 µM (inactive),> 100 µM (inactive),> 100 µM (inactive),> 100 µM (inactive),> 100 µM (inactive),> 100 µM (inactive),> 100 µM (inactive),> 100 µM (inactive),> 100 µM (inactive),> 100 µM (inactive),> 100 µM (inactive),–,> 100 µM (inactive),> 100 µM (inactive),> 100 µM (inactive),–,–,–,–
COc1ccc2c(NCCCCCCNc3c4ccccc4nc4cc(OC)ccc34)c3ccccc3nc2c1,0.0676 µM (active),0.163 µM (active),0.186 µM (active),0.0334 µM (active),0.137 µM (active),0.1 µM (active),0.04 µM (active),0.075 µM (active),0.104 µM (active),0.263 µM (active),0.0624 µM (active),0.0834 µM (active),0.0728 µM (active),0.213 µM (active),0.162 µM (active),0.579 µM (active),0.142 µM (active),0.204 µM (active),0.067 µM (active),0.421 µM (active)
CC1=C(C(=O)Nc2cccc(Cl)c2)C(c2ccccc2F)C(C(=O)Nc2cccc(Cl)c2)=C(C)N1,11 µM (inactive),9.98 µM (inactive),19.3 µM (inactive),4.79 µM (inactive),15.8 µM (inactive),1.15 µM (inactive),8.11 µM (inactive),15 µM (inactive),12.2 µM (inactive),–,9.16 µM (inactive),7.24 µM (inactive),12.6 µM (inactive),11.8 µM (inactive),10.8 µM (inactive),6.22 µM (inactive),–,–,–,–
Cc1ccc(C(=O)N(C(C)C)C(C)C)cc1/N=N/N(C)C,> 100 µM (inactive),> 75.5 µM (inactive),> 100 µM (inactive),38.8 µM (inactive),> 100 µM (inactive),> 64.6 µM (inactive),31.2 µM (inactive),> 100 µM (inactive),41 µM (inactive),> 80.5 µM (inactive),18.2 µM (inactive),–,> 80 µM (inactive),> 51.6 µM (inactive),31.3 µM (inactive),> 100 µM (inactive),> 100 µM (inactive),> 100 µM (inactive),> 100 µM (inactive),39.4 µM (inactive)
BrC1(Br)C2/C=C\CCCCC21 (stereo unspecified),> 100 µM (inactive),> 100 µM (inactive),> 100 µM (inactive),> 100 µM (inactive),> 100 µM (inactive),42.3 µM (inactive),> 100 µM (inactive),> 100 µM (inactive),> 100 µM (inactive),–,> 100 µM (inactive),> 100 µM (inactive),> 100 µM (inactive),> 100 µM (inactive),–,> 100 µM (inactive),–,–,–,–
CCCN1CC=CCC1,> 100 µM (inactive),> 100 µM (inactive),> 100 µM (inactive),< 0.01 µM (active),–,> 100 µM (inactive),> 100 µM (inactive),> 100 µM (inactive),> 100 µM (inactive),> 100 µM (inactive),> 100 µM (inactive),> 100 µM (inactive),> 100 µM (inactive),> 100 µM (inactive),> 100 µM (inactive),> 100 µM (inactive),–,–,–,–
CCC1CN2CCc3c([nH]c4ccccc34)C2C[C@@H]1CC(=O)N(C)C (stereo partly specified),> 100 µM (inactive),> 100 µM (inactive),> 100 µM (inactive),> 100 µM (inactive),> 100 µM (inactive),51.6 µM (inactive),> 100 µM (inactive),> 100 µM (inactive),> 100 µM (inactive),–,> 100 µM (inactive),> 100 µM (inactive),> 100 µM (inactive),> 100 µM (inactive),> 100 µM (inactive),> 100 µM (inactive),–,–,–,–
O=C(O)CNS(=O)(=O)c1ccc(NCc2ccccc2)cc1,> 100 µM (inactive),> 100 µM (inactive),> 100 µM (inactive),> 100 µM (inactive),> 100 µM (inactive),> 100 µM (inactive),> 100 µM (inactive),> 100 µM (inactive),> 100 µM (inactive),> 100 µM (inactive),> 100 µM (inactive),> 100 µM (inactive),> 100 µM (inactive),> 100 µM (inactive),–,> 100 µM (inactive),–,–,–,–
COc1ccc(/C=C\c2cc(OC)c3c(c2)OCO3)c(O)c1O,15 µM (inactive),11.2 µM (inactive),26.7 µM (inactive),4.14 µM (inactive),7.59 µM (inactive),5.55 µM (inactive),2.07 µM (inactive),4.71 µM (inactive),4.98 µM (inactive),3.33 µM (inactive),1.7 µM (inactive),3.94 µM (inactive),6.05 µM (inactive),4.47 µM (inactive),4.78 µM (inactive),11.7 µM (inactive),–,–,–,–
